Assay results taken from the NIST ThermoML archive (doi:10.1016/j.jct.2010.11.012).

Assay: xn = mol fraction of the nth substance listed
Conditions: Liquid, Bellows volumetry

CCCC [butane] + O=C=O
mass density [kg/m3]
Conditions	280 K	300 K	320 K	340 K	360 K	380 K	400 K	420 K	440 K
3000 kPa, x2 = 0.2322	630.31	–	–	–	–	–	–	–	–
5000 kPa, x2 = 0.2322	633.96	–	575.82	–	–	–	–	–	–
5000 kPa, x2 = 0.4794	680.75	639.52	–	–	–	–	–	–	–
5000 kPa, x2 = 0.715	743.91	–	–	–	–	–	–	–	–
10000 kPa, x2 = 0.2322	642.11	–	589.62	–	527.83	–	446.86	–	–
10000 kPa, x2 = 0.4794	692.87	657.02	616.31	569.54	511.93	–	–	–	–
10000 kPa, x2 = 0.715	764.37	–	634.09	–	–	–	–	–	–
20000 kPa, x2 = 0.2322	656.07	–	611.12	–	561.64	–	507.96	–	450.53
20000 kPa, x2 = 0.4794	712.84	682.52	650.15	616.43	580.87	542.77	502.33	–	–
20000 kPa, x2 = 0.715	794.78	–	700.42	–	589.3	–	–	–	–
30000 kPa, x2 = 0.2322	667.86	–	627.12	–	584.81	–	540.33	–	495.88
30000 kPa, x2 = 0.4794	728.81	701.65	674.04	645.49	616.95	587.13	556.87	526.92	497.45
30000 kPa, x2 = 0.715	817.62	–	738.09	–	653.81	–	566.01	–	–
40000 kPa, x2 = 0.2322	678.47	–	640.44	–	602.48	–	563.25	–	525.21
40000 kPa, x2 = 0.4794	742.52	717.56	692.66	667.35	642.35	616.84	591.24	566.28	541.84
40000 kPa, x2 = 0.715	836.27	–	765.65	–	694.03	–	621.7	–	554.08
50000 kPa, x2 = 0.2322	687.34	–	652.04	–	616.98	–	581.4	–	547.37
50000 kPa, x2 = 0.4794	754.67	731.07	708.18	685.08	662.49	639.71	616.85	595.02	573.48
50000 kPa, x2 = 0.715	852	–	787.84	–	724.09	–	660.78	–	601.28
60000 kPa, x2 = 0.2322	695.74	–	662.33	–	629.59	–	596.43	–	565.31
60000 kPa, x2 = 0.4794	764.81	742.9	721.35	700	679.22	658.27	637.36	617.32	597.98
60000 kPa, x2 = 0.715	866.13	–	806.49	–	747.95	–	690.23	–	637.06
70000 kPa, x2 = 0.2322	703.24	–	671.53	–	640.64	–	609.35	–	580.32
70000 kPa, x2 = 0.4794	774.33	753.65	733.06	713.41	693.75	674.23	654.78	635.97	618.26
70000 kPa, x2 = 0.715	878.47	–	822.63	–	768.11	–	714.95	–	665.83
80000 kPa, x2 = 0.2322	710.1	–	679.91	–	650.47	–	620.59	–	593.42
80000 kPa, x2 = 0.4794	783.23	763.35	744.07	724.94	706.48	687.97	669.8	652.07	635.67
80000 kPa, x2 = 0.715	890.87	–	836.62	–	785.74	–	735.73	–	689.85
90000 kPa, x2 = 0.2322	716.71	–	687.47	–	659.56	–	631	–	605.1
90000 kPa, x2 = 0.4794	791.49	772.13	753.75	735.81	717.86	700.34	682.95	666.23	651.02
90000 kPa, x2 = 0.715	901.14	–	849.86	–	801.06	–	753.9	–	710.59
100000 kPa, x2 = 0.2322	723.23	–	694.73	–	667.72	–	640.36	–	615.81
100000 kPa, x2 = 0.4794	798.9	780.58	762.74	745.33	728.39	711.49	695.05	678.91	664.29
100000 kPa, x2 = 0.715	910.69	–	861.47	–	815.17	–	770.02	–	728.79
120000 kPa, x2 = 0.2322	734.32	–	707.88	–	683.01	–	657.01	–	634.32
120000 kPa, x2 = 0.4794	812.9	795.54	778.9	762.5	747.06	731.12	716.06	701.1	687.84
120000 kPa, x2 = 0.715	928.62	–	882.45	–	839.59	–	797.97	–	759.95
140000 kPa, x2 = 0.2322	744.8	–	719.63	–	695.82	–	671.62	–	650.31
140000 kPa, x2 = 0.4794	825.4	809.12	793	777.74	763.38	748.2	734.23	719.99	707.66
140000 kPa, x2 = 0.715	944.48	–	900.69	–	861.07	–	821.54	–	786.09
160000 kPa, x2 = 0.2322	754.11	–	730.08	–	707.43	–	684.45	–	664.25
160000 kPa, x2 = 0.4794	836.77	820.91	805.87	791.24	777.86	763.43	749.98	736.74	724.96
160000 kPa, x2 = 0.715	958.48	–	917.22	–	878.95	–	841.99	–	808.63
180000 kPa, x2 = 0.2322	762.53	–	739.97	–	718.38	–	696.37	–	676.7
180000 kPa, x2 = 0.4794	847.4	832.12	817.41	803.57	790.57	776.93	764.27	751.63	740.16
180000 kPa, x2 = 0.715	971.36	–	931.83	–	895.71	–	860.22	–	828.38
200000 kPa, x2 = 0.2322	770.7	–	748.41	–	727.81	–	706.63	–	688.15
200000 kPa, x2 = 0.4794	856.48	842.22	828.26	815.1	802.28	789.44	777.01	764.81	754.38
200000 kPa, x2 = 0.715	983.53	–	945.52	–	910.63	–	876.67	–	846.42
